Source: US20240174634A1, “Aldehyde Dehydrogenase Inhibitors and Their Therapeutic Use” (priority 2020, published 2024)

Target: T1, ALDH1A3 (Homo sapiens, UniProt P47895)
T1 sequence (P47895 1-512): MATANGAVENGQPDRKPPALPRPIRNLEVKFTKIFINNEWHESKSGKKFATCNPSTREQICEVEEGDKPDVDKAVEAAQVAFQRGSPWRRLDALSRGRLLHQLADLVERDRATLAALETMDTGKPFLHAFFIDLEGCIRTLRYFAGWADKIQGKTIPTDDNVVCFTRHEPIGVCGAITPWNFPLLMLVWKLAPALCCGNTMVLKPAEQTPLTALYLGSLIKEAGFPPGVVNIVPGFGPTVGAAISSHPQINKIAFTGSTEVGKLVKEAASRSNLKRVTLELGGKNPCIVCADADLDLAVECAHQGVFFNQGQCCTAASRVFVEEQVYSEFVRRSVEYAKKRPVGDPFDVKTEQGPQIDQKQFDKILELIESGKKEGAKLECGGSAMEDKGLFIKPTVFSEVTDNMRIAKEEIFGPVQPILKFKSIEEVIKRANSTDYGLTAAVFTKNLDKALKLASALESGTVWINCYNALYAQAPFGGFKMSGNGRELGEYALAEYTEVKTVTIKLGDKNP
Assay: Primary biochemical assay, NAD(P)H-Glo Detection System
Design: His-tag; made in house; host or cells: E. coli Rosetta (DE3)
Details: 30 min pre-incubation, propionaldehyde and NAD at Km
Summary of the method: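 Recombinant full-length His-tagged human enzymes expressed in E. coli were pre-incubated 30 min at room temperature with compound (10-point, 3-fold series; top 20 μM for ALDH1A3, 250 μM for ALDH1A1/1A2). Propionaldehyde and NAD were then added at Km; NADH was read by NAD(P)H-Glo luminescence. Buffer: Tris (pH 7.6 for 1A1/1A2, 9.0 for 1A3), 1 mM TCEP, 0.01% Tween-20.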

Row | SMILES | IC50
1 | CCN(CC)CCN(CCOc1ccc2c(c1)CCC(=O)N2)Cc1ccccc1 [ALDHI-3004, 6-[2-[benzyl-[2-(diethylamino)ethyl]amino]ethoxy]-3,4-dihydro-1H-quinolin-2-one] | 100 to 1000 nM
2 | O=C1CCc2cc(OCCN(CCO)Cc3cccnc3)ccc2N1 [ALDHI-3005, 6-[2-[2-hydroxyethyl(3-pyridylmethyl)amino]ethoxy]-3,4-dihydro-1H-quinolin-2-one] | < 100 nM
3 | C[C@H](c1ccccc1)N(CCO)CCOc1ccc2c(c1)CCC(=O)N2 [ALDHI-3006, 6-[2-[2-hydroxyethyl-[(1R)-1-phenylethyl]amino]ethoxy]-3,4-dihydro-1H-quinolin-2-one] | 100 to 1000 nM
4 | C[C@@H](c1ccccc1)N(CCO)CCOc1ccc2c(c1)CCC(=O)N2 [ALDHI-3007, 6-[2-[2-hydroxyethyl-[(1S)-1-phenylethyl]amino]ethoxy]-3,4-dihydro-1H-quinolin-2-one] | 100 to 1000 nM
5 | CN(CCOc1ccc2c(c1)CCC(=O)N2)C(=O)c1cccc(F)c1 [ALDHI-3008, 3-fluoro-N-methyl-N-[2-[(2-oxo-3,4-dihydro-1H-quinolin-6-yl)oxy]ethyl]benzamide] | 100 to 1000 nM
6 | CN(CCOc1ccc2c(c1)CCC(=O)N2)Cc1cccnc1 [ALDHI-3010, 6-[2-[methyl(3-pyridylmethyl)amino]ethoxy]-3,4-dihydro-1H-quinolin-2-one] | 100 to 1000 nM
7 | CN(CCOc1ccc2c(c1)CCC(=O)N2)C(=O)c1cccnc1 [ALDHI-3013, N-methyl-N-[2-[(2-oxo-3,4-dihydro-1H-quinolin-6-yl)oxy]ethyl]pyridine-3-carboxamide] | 100 to 1000 nM
